Measured values published in US11376257B2, “Generation of muscle lineage cells and therapeutic uses thereof” (GENEA BIOCELLS USA (HOLDINGS), INC., priority 2016, dated 2022).
Entries after “also recorded” stand apart in the source; their conditions may differ. Read-outs that look alike come from different tables or passages of the source.

Experiments:
[1] = tested on: myoblasts from non-affected and genetic disease-affected hESC cell lines; assay: Myotube formation in disease-affected and non-affected hESC-derived myoblasts with or without CHIR-124; format: cell-based, human; conditions: 0.5 μM CHIR-124, three days in Myotube Medium, all cell lines (unaffected, Huntington's, DM1, DM2, SMA, FSH, DMD)
Procedure: Myoblasts prepared via the method of Example 4 from two non-affected hESC cell lines (Genea002 and Genes019) and six verified genetic disease-affected cell lines (Genea020, Genea066, Gen103, Gen158, Gen049 and Gen159, described in Table 6 below) were thawed in Genea Biocells Myoblast Medium in 96-well microtiter plates at 3.0×10^4 cells/cm2 and incubated at 10% CO2, 37° C. Genea020 was derived from an embryo affected with Huntington's disease (48CAG repeat expansion in the Huntingtin gene). Genea066 was derived from an embryo affected with Myotonic Dystrophy type II. Genea103 was derived from an embryo affected with Spinal Muscular Atrophy. Genea158 was derived from an embryo affected with Myotonic Dystrophy type I. Genea049 was derived from an embryo affected with FSH Muscular Dystrophy. Genea159 was derived from an embryo affected with Duchenne muscular dystrophy. All hESC cell lines were derived according to approved ethical protocols from donated embryos. Once cells (myoblasts) were confluent (approximately on day 3) media was changed for Genea Biocells Myotube Medium, either alone or with 0.5 μM CHIR-124 (CHIR). […] Images were analyzed with IN Cell Developer Toolbox software (GE Healthcare). […] The ratio between area of MHC and nuclei (um2) was calculated by measuring the area per field divided by the number of nuclei within that field.

[2] = tested on: stem cell-derived myoblasts; conditions: for production of myotubes with mature features (summary of FIGS. 10-18): different doses in Myotube Medium; for production of myotubes with mature features (summary of FIGS. 10-18) / myotube morphology (visual) versus control cultures: 5 days
Procedure: For screening, frozen satellite-like cells, prepared as described in Example 1, were thawed in a water bath at 37° C., resuspended in 3 mL of warm Myoblast Medium (Genea Biocells) and centrifuged at 400×g for 4 min. The supernatant was removed and the cell pellet was resuspended in 1 mL of medium for cell count. Cells were seeded at a density of 5,000 cells/cm^2 in collagen I-coated plastic flasks (Biocoat, BD Bioscience) and incubated at 5% CO2, 37° C. Every other day the culture medium was exchanged until cells reached a confluency of 80%, then cells were trypsinized, counted and seeded in collagen-coated 96-well plate (Biocoat) at density of 30,000 cells/cm^2 in Myoblast Medium using an automated liquid handling system (Fluent, Tecan Trading AG, Switzerland). Cells were incubated at 5% CO2, 37° C. and the medium was changed every other day until cells reached a confluence of 80%. The medium was exchanged for Myotube Medium (Genea Biocells) containing the test compounds. No further media changes were performed. In general, 3 to 6 concentrations were tested ranging from 3 μM to 1 nM; one plate per dilution was used. Media and DMSO control wells were placed randomly. No media changes were performed at this stage. After five days of myotube differentiation in the presence of compounds, cells were fixed with 10% formalin (Sigma) for 15 minutes at room temperature and washed once with phosphate-buffered saline (PBS). Next, cells were stained with an antibody specific for myosin heavy chain (Developmental Studies of Hybridoma Bank, University of Iowa, Iowa City; anti mouse A4.1519; dilution 1:1000) in PBS solution containing 5% bovine serum albumin (BSA, Sigma) and 0.3% Triton-X (Sigma) and incubated for 1 hour at room temperature. The cells were washed once with PBS and then incubated for 1 hour with a second antibody, Alexa Fluor 488-conjugated goat anti-mouse IgG (Invitrogen, 1:1000), and counterstained for nuclei with Hoechst 33342 (Molecular probes 1:5000) in a PBS solution containing 5% BSA and 0.3% Triton-X. Cells were washed with PBS prior microscopic analysis. Cells were imaged using an IN Cell Analyzer 6000 (GE-Healthcare) high content analysis system. Developer Toolbox v1.9.3 was utilized for image analysis to determine the number of nuclei, and the number of nuclei within MHC-positive myotubes. To evaluate the effect of compounds in either decrease or increase these measures untreated controls were set as the baseline.
Myoblasts were prepared or frozen myoblasts were thawed as described in Example 4. Once cultures reached confluency the medium was changed to Myotube Medium supplemented with 0.2, 0.5 or 1 μM CHIR-124 (Chk1 inhibitor). The cultures were left in an incubator at 37° C. and 5% CO2 for 5 days. […] Cells were fixed with 10% formalin (Sigma) for 15 minutes at room temperature and washed once with phosphate-buffered saline (PBS). Next, cells were stained for with antibodies specific for myosin heavy chain (Developmental Studies of Hybridoma Bank, University of Iowa, Iowa City; anti mouse A4.1519; dilution 1:1000) and MyoG (Santa Cruz, anti-rabbit; dilution 1:500) in PBS solution containing 5% bovine serum albumin (BSA, Sigma) and 0.3% Triton-X (Sigma) and incubated for 1 hour at room temperature. The cells were washed once with PBS and then incubated for 1 hour with a second antibody, Alexa Fluor 488-conjugated goat anti-mouse IgG and Alexa Fluor 647-conjugated anti-rabbit (both Invitrogen, 1:1000), and counterstained for nuclei with Hoechst 33342 (Molecular probes 1:5000) in a PBS solution containing 5% BSA and 0.3% Triton-X. Cells were washed with PBS prior to microscopic analysis. Cells were imaged using an IN Cell Analyzer 6000 (GE-Healthcare) high content analysis system.

[3] = tested on: myosin heavy chains (MHC) in Genea015 myoblast-derived myotubes; assay: Western blot analysis of myosin heavy chain types in myotubes; format: cell-based, human
Procedure: Genea015 (a disease-unaffected hESC cell line) myoblasts prepared by the method of Example 4 were thawed and seeded at 30,000 cells/cm^2 in Genea Biocells Myoblast Medium and incubated at 37° C., 5% CO2 until confluent (approximately 2 days). Then media was changed for Genea Biocells Myotube Medium either alone or with […] CHIR-124. Cell lysates for protein analysis were collected 5 days after treatment with CHIR-124 and quantified by BCA assay (ThermoFisher). Western blotting (Wes, Protein Simple) was performed to analyze the expression of myosin heavy chains (MHC) that are expressed during development and maturation of myotubes (total MHC, or total myosin heavy chain; eMHC, or embryonic myosin heavy chain; fMHC, or foetal myosin heavy chain; pMHC, or perinatal myosin heavy chain; and fast MHC, or fast myosin heavy chain, the most mature MHC found in myotubes). MHC expression was normalized to Vinculin for quantification.

[4] = tested on: Duchenne Muscular Dystrophy (DMD); assay: Treatment of a Duchenne Muscular Dystrophy patient with a checkpoint inhibitor; format: in vivo, human; conditions: child with DMD
Procedure: A child diagnosed with Duchenne Muscular Dystrophy (DMD) is seen in a clinic for weakness in their calves and thighs.
A child diagnosed with Duchenne Muscular Dystrophy (DMD) is seen in a clinic for weakness in their calves and thighs. To treat the muscle weakness, the patient is administered 100 mg once daily of CHIR-124 or 50-75 mg twice daily of CHIR-124 for two months. At the initial appointment, skin fibroblasts are obtained from the patient. The fibroblasts are subsequently used to produce induced pluripotent stem cells (iPSCs), which are then genetically modified to remove a mutation associated with DMD. The iPSCs are then differentiated into satellite cells in vitro; and the satellite cells, in turn, are differentiated into myoblasts in vitro. The differentiated myoblasts are then administered in […] doses to the patient's thighs and calves once a week during the two month period.

[5] = 0.5 μM CHIR-124, 5 days, Genea015

Which results are given for `O=c1[nH]c2ccc(Cl)cc2c(NC2CN3CCC2CC3)c1-c1nc2ccccc2[nH]1` (centres unmarked) [CHIR-124]?
myotube formation as MHC staining area normalized to cell number (nuclei) [1]: improved myotube formation; also recorded: improvements in differentiation; myotube formation as MHC staining area normalized to cell number (nuclei) ([1]; listed as CHIR124): higher; myotube morphology (visual) ([2]; 0.2 μM, 0.5 μM, or 1 μM CHIR-124, 5 days): formed thick, large myotubes; number of myotubes observed ([2]; 1 μM CHIR-124, 5 days): overall fewer myotubes were observed; larger average myotube diameter compared to myotubes formed in the absence of CHIR-124 ([2]; 0.2 or 0.5 μM CHIR-124, 5 days): > 80%; average number of nuclei per myotube ([2]; 0.2 or 0.5 μM CHIR-124, 5 days, 2 without CHIR-124): about 4; mean area of myotubes (FIG. 10D, lower panel) ([2]; CHIR-124, 5 days): Increases; myotube area (FIG. 10C, lower panel) ([2]; CHIR-124, 5 days): Increases; number of cells with larger myotube area (FIG. 10D, upper panel) ([2]; CHIR-124, 5 days): Increases; number of cells with more than one nucleus (FIG. 10B, lower panel) ([2]; CHIR-124, 5 days): Increases; production of myotubes with mature features (summary of FIGS. 10-18) [2]: produce myotubes with mature features; nuclei contained in many myotubes ([2]; exposed to CHIR-124, untreated controls few cells exceeding 10-12 nuclei): more than 30; expression of fast MHC (fast myosin heavy chain) [3, 5]: increases in expression; expression of total MHC normalized to Vinculin [3, 5]: increases expression; expression of pMHC (perinatal myosin heavy chain) ([3]; 0.5 M CHIR-124, 5 days, Genea015): increases in expression; expression of the most mature forms of MHC (FIG. 20) ([3]; in the presence of CHIR-124): increased expression; symptoms of muscle weakness ([4]; 100 mg once daily or 50-75 mg twice daily for two months): symptoms of muscle weakness improve; muscle tone ([4]; CHIR-124 for two months combined with genetically modified iPSC-derived myoblasts once a week): improved muscle tone

What does the source list for `CC(C)c1noc(N2CCC(COc3ccc(-c4ccc(S(C)(=O)=O)cc4)nc3)CC2)n1` [GSK1292263]?
myotube morphology (visual) versus control cultures ([2]; 0.1, 0.3 or 1 M): formed longer and thicker myotubes than control cultures; production of myotubes with mature features (summary of FIGS. 10-18) [2]: produce myotubes with mature features

How did the “myotube morphology (visual) versus control cultures” value ([2]; 0.1, 0.3 or 1 μM) turn out when `Cn1cnc2c(F)c(Nc3ccc(Br)cc3F)c(C(=O)NOCCO)cc21` [MEK162, binimetinib] was run?
The value was “formed more and longer and thicker myotubes than control cultures”.

And the “production of myotubes with mature features (summary of FIGS. 10-18)” value (from here on “production of myotubes”) [2]?
The value was “produce myotubes with mature features”.

How did the “myotube morphology (visual) versus control cultures” value ([2]; 0.1, 0.3 or 1 M) turn out when `COc1ccncc1C(=O)NC(=O)Nc1ccc(-c2ccccc2)c(C(F)(F)F)c1` [TC-G 1006] was run?
The value was “formed longer and thicker myotubes than control cultures”.

What about the “production of myotubes” value [2] of the same compound?
Its value is “produce myotubes with mature features”.

What does the source list for `CN1[C@@H]2CC[C@H]1C[C@@H](OC(=O)C(CO)c1ccccc1)C2` (some centres unmarked) [atropine]?
myotube morphology (visual) versus control cultures ([2]; 0.2, 0.5 or 1 μM atropine): formed longer and thicker myotubes than control cultures; number of myotubes observed ([2]; cultures incubated with atropine): overall fewer myotubes were observed; production of myotubes with mature features (summary of FIGS. 10-18) [2]: produce myotubes with mature features

Which results are given for `CC[C@@H]1C(=O)OC[C@@H]1Cc1cncn1C` [pilocarpine]?
myotube morphology (visual) versus control cultures ([2]; 0.1, 03 or 1 μM pilocarpine): formed longer and thicker myotubes than control cultures; production of myotubes with mature features (summary of FIGS. 10-18) [2]: produce myotubes with mature features

With `CO[C@H]1C[C@@H]2CC[C@@H](C)[C@@](O)(O2)C(=O)C(=O)N2CCCC[C@H]2C(=O)O[C@H]([C@H](C)C[C@@H]2CC[C@@H](O)[C@H](OC)C2)CC(=O)[C@H](C)/C=C(\C)[C@@H](O)[C@@H](OC)C(=O)[C@H](C)C[C@H](C)/C=C/C=C/C=C/1C` [rapamycin] as the compound, how does the “myotube morphology (visual) versus control cultures” value ([2]; 0.1, 0.3 or 1 μM) read?
The value was “formed more and longer and thicker myotubes than control cultures”.

And the “production of myotubes” value [2]?
The value was “produce myotubes with mature features”.

What does the source list for `CNC(=O)c1cc(Oc2ccc(NC(=O)Nc3ccc(Cl)c(C(F)(F)F)c3)cc2)ccn1` [sorafenib]?
myotube morphology (visual) versus control cultures ([2]; 0.1, 0.3 or 1 μM): formed more and longer and thicker myotubes than control cultures; production of myotubes with mature features (summary of FIGS. 10-18) [2]: produce myotubes with mature features

For talazoparib, which “myotube morphology (visual) versus control cultures” value ([2]; 0.1, 0.3 or 1 μM Talazoparib) is on record?
The value was “formed more and longer myotubes than control cultures”.

And the “production of myotubes” value [2]?
The value was “produce myotubes with mature features”.
